Laboratory results published in US20250154144A1 (CHILDREN'S HOSPITAL MEDICAL CENTER, priority 2021, published 2025).
Residue numbers refer to the chain shown, from its start.

Columns and labels:
FLT3 D835H = molecular target: T1, FLT3 D835H (Homo sapiens, UniProt P36888, D835H); experiment: DiscoverX KINOMEscan competition binding, FLT3 D835H
T1 construct: purchased DiscoverX (KINOMEscan)
T1 sequence (P36888 27-993 D835H): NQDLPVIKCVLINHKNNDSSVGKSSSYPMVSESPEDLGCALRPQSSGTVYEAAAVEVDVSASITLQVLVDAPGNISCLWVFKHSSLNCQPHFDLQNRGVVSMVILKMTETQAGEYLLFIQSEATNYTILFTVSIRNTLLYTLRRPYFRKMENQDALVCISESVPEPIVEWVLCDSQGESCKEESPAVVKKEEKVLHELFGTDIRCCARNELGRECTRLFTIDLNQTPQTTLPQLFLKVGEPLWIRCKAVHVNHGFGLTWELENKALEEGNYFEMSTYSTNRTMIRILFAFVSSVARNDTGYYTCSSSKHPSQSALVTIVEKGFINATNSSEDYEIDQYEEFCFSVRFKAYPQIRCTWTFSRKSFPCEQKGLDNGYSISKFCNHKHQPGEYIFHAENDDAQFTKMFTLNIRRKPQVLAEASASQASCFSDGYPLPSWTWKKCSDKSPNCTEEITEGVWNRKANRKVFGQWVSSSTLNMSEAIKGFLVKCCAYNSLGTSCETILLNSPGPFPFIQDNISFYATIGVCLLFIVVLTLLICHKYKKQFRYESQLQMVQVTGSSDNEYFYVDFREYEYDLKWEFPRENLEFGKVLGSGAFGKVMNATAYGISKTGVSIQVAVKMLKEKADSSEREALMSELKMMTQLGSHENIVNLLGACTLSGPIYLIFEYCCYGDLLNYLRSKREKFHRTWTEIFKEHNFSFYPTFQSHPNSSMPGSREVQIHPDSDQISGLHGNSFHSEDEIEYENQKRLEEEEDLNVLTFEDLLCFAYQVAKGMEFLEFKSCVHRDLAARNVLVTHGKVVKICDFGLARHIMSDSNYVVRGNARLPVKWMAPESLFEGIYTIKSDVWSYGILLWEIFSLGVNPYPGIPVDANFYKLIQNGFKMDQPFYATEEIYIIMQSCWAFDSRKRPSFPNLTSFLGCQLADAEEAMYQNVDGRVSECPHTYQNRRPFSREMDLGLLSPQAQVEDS

IRAK4 = molecular target: T2, IRAK4 (Homo sapiens, UniProt Q9NWZ3); experiment: RBC HotSpot Kinase Assay, IRAK4; details: IRAK4 IC50
T2 sequence (Q9NWZ3 1-460): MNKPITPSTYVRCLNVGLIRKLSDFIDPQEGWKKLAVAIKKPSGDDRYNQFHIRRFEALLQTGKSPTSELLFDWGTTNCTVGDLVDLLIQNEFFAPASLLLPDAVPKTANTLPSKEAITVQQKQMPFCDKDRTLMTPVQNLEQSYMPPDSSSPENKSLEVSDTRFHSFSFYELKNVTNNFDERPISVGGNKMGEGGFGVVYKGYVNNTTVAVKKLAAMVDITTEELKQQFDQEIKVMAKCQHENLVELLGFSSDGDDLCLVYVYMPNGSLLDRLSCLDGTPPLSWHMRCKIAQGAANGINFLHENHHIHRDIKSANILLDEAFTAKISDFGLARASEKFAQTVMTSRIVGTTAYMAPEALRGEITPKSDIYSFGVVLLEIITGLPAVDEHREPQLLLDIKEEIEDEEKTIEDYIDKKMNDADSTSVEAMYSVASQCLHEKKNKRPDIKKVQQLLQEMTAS

FLT3 = molecular target: T3, FLT3 (Homo sapiens, UniProt P36888); experiment: DiscoverX KINOMEscan competition binding, FLT3; set-up: using full-length kinases in the presence of cellular concentrations of ATP in live, uncompromised cells
T3 sequence (P36888 27-993): T1 sequence (P36888 27-993 D835H) with H809D

`COc1cc2ncc(-c3ccnc(N[C@H]4CNCC[C@@H]4F)n3)n2nc1C1CC1` [Compound 51, 4-(6-cyclopropyl-7-methoxyimidazo[1,2-b]pyridazin-3-yl)-N-((3S,4S)-4-fluoropiperidin-3-yl)pyrimidin-2-amine] showed a Kd (FLT3 D835H) of 0.47 nM, an IC50 (IRAK4) of 0.6 nM and a Kd (FLT3) of 0.22 nM.
`COc1cc2ncc(-c3ccnc(N[C@H]4CNC[C@@H]4F)n3)n2nc1C1CC1` [Compound 49, 4-(6-cyclopropyl-7-methoxyimidazo[1,2-b]pyridazin-3-yl)-N-((3S,4S)-4-fluoropyrrolidin-3-yl)pyrimidin-2-amine] gave a Kd (FLT3 D835H) of 0.46 nM, an IC50 (IRAK4) of 1 nM and a Kd (FLT3) of 0.26 nM.
`CC(O)(c1cn2c(-c3ccnc(N[C@H]4CNCC[C@@H]4F)n3)cnc2cn1)C(F)(F)F` (single isomer, unassigned) [Compound 72] showed a Kd (FLT3 D835H) of 1.1 nM, an IC50 (IRAK4) of 0.7 nM and a Kd (FLT3) of 5.2 nM.
`COc1cc2ncc(-c3cncc(N[C@H]4CNCC[C@@H]4F)n3)n2nc1C1CC1` [Compound 24, 6-(6-cyclopropyl-7-methoxyimidazo[1,2-b]pyridazin-3-yl)-N-((3S,4S)-4-fluoropiperidin-3-yl)pyrazin-2-amine] gave a Kd (FLT3 D835H) of 0.33 nM, an IC50 (IRAK4) of 0.7 nM and a Kd (FLT3) of 0.19 nM.
With `COc1cc2ncc(-c3cncc(N[C@H]4CNC[C@@H]4F)n3)n2nc1C1CC1` [Compound 22, 6-(6-cyclopropyl-7-methoxyimidazo[1,2-b]pyridazin-3-yl)-N-((3S,4S)-4-fluoropyrrolidin-3-yl)pyrazin-2-amine] the Kd (FLT3 D835H) was 0.87 nM, the IC50 (IRAK4) was 1 nM and the Kd (FLT3) was 1.8 nM.
For `F[C@H]1CCNC[C@@H]1Nc1cncc(-c2cnc3cc(OC4CC4)ccn23)n1` [Compound 12, 6-(7-cyclopropoxyimidazo[1,2-a]pyridin-3-yl)-N-((3S,4S)-4-fluoropiperidin-3-yl)pyrazin-2-amine], the Kd (FLT3 D835H) was 1.1 nM, the IC50 (IRAK4) was 2 nM and the Kd (FLT3) was 1.9 nM.
With `COc1cc2ncc(-c3ccnc(N[C@@H]4CCCNC4)n3)n2cc1C(C)(C)O` [Compound 44, (R)-2-(7-methoxy-3-(2-(piperidin-3-ylamino)pyrimidin-4-yl)imidazo[1,2-a]pyridin-6-yl)propan-2-ol] the Kd (FLT3 D835H) was 0.28 nM, the IC50 (IRAK4) was under 0.5 nM and the Kd (FLT3) was 0.28 nM.
For `COc1cc2ncc(-c3ccnc(N[C@@H]4CCCNC4)n3)n2nc1C1CC1` [Compound 50, (R)-4-(6-cyclopropyl-7-methoxyimidazo[1,2-b]pyridazin-3-yl)-N-(piperidin-3-yl)pyrimidin-2-amine], the IC50 (IRAK4) was 4 nM.
